How the values were obtained:
[1] = target: Serine/threonine-protein kinase Sgk3 (Homo sapiens) (UniProt Q96BR1); conditions: Compound concentration 1000.0 nM
[2] = system: Tyrosine-protein kinase ABL1 (Homo sapiens), P00519 [T315I]; conditions: Compound concentration 1000.0 nM
[3] = target: Mitogen-activated protein kinase kinase kinase 12 (Homo sapiens) (UniProt Q12852); conditions: Compound concentration 1000.0 nM
[4] = target: Ribosomal protein S6 kinase alpha-4 (Homo sapiens) (UniProt O75676); conditions: Compound concentration 1000.0 nM
[5] = target: Serine/threonine-protein kinase ULK2 (Homo sapiens) (UniProt Q8IYT8); conditions: Compound concentration 1000.0 nM
[6] = target: Tyrosine-protein kinase Lck (Homo sapiens) (UniProt P06239); conditions: Compound concentration 1000.0 nM
[7] = target: Ephrin type-A receptor 5 (Homo sapiens) (UniProt P54756); conditions: Compound concentration 1000.0 nM
[8] = target: Serine/threonine-protein kinase 25 (Homo sapiens) (UniProt O00506); conditions: Compound concentration 1000.0 nM
[9] = target: Mitogen-activated protein kinase 13 (Homo sapiens) (UniProt O15264); conditions: Compound concentration 1000.0 nM
[10] = target: Membrane-associated tyrosine- and threonine-specific cdc2-inhibitory kinase (Homo sapiens) (UniProt Q99640); conditions: Compound concentration 1000.0 nM
[11] = target: Cyclin-dependent kinase 9 (Homo sapiens) (UniProt P50750); conditions: Compound concentration 1000.0 nM
[12] = target: Ephrin type-A receptor 3 (Homo sapiens) (UniProt P29320); conditions: Compound concentration 1000.0 nM
[13] = target: Tyrosine-protein kinase Mer (Homo sapiens) (UniProt Q12866); conditions: Compound concentration 1000.0 nM
[14] = target: Hormonally up-regulated neu tumor-associated kinase (Homo sapiens) (UniProt P57058); conditions: Compound concentration 1000.0 nM
[15] = target: Phosphorylase b kinase regulatory subunit alpha, liver isoform (Homo sapiens) (UniProt P46019); conditions: Compound concentration 1000.0 nM
[16] = target: Dual specificity protein kinase CLK3 (Homo sapiens) (UniProt P49761); conditions: Compound concentration 1000.0 nM
[17] = target: Receptor-interacting serine/threonine-protein kinase 2 (Homo sapiens) (UniProt O43353); conditions: Compound concentration 1000.0 nM
[18] = target: Ephrin type-A receptor 7 (Homo sapiens) (UniProt Q15375); conditions: Compound concentration 1000.0 nM
[19] = target: Serine/threonine-protein kinase 3 (Homo sapiens) (UniProt Q13188); conditions: Compound concentration 1000.0 nM
[20] = system: Mast/stem cell growth factor receptor Kit (Homo sapiens), P10721 [V559D,T670I]; conditions: Compound concentration 1000.0 nM
[21] = target: Serine/threonine-protein kinase MARK1 (Homo sapiens) (UniProt Q9P0L2); conditions: Compound concentration 1000.0 nM
[22] = target: 5-hydroxytryptamine receptor 2B (Homo sapiens, UniProt P41595); conditions: Compound concentration 10.0 uM
[23] = target: Serine/threonine-protein kinase 4 (Homo sapiens) (UniProt Q13043); conditions: Compound concentration 1000.0 nM
[24] = target: G protein-coupled receptor kinase 3 (Homo sapiens) (UniProt P35626); conditions: Compound concentration 1000.0 nM
[25] = system: eIF-2-alpha kinase GCN2 (Homo sapiens), Q9P2K8 [S808G]; conditions: Compound concentration 1000.0 nM
[26] = target: Tyrosine-protein kinase ABL1 (Homo sapiens) (UniProt P00519); conditions: Compound concentration 1000.0 nM
[27] = target: Proto-oncogene tyrosine-protein kinase ROS (Homo sapiens) (UniProt P08922); conditions: Compound concentration 1000.0 nM
[28] = target: Focal adhesion kinase 1 (Homo sapiens) (UniProt Q05397); conditions: Compound concentration 1000.0 nM
[29] = system: Phosphatidylinositol 4,5-bisphosphate 3-kinase catalytic subunit alpha isoform (Homo sapiens), P42336 [E545A]; conditions: Compound concentration 1000.0 nM
[30] = system: Tyrosine-protein kinase ABL1 (Homo sapiens), P00519 [F317L]; conditions: Compound concentration 1000.0 nM
[31] = target: NT-3 growth factor receptor (Homo sapiens) (UniProt Q16288); conditions: Compound concentration 1000.0 nM
[32] = target: Calcium/calmodulin-dependent protein kinase type II subunit beta (Homo sapiens) (UniProt Q13554); conditions: Compound concentration 1000.0 nM
[33] = target: Tyrosine-protein kinase ABL2 (Homo sapiens) (UniProt P42684); conditions: Compound concentration 1000.0 nM
[34] = target: Serine/threonine-protein kinase MRCK gamma (Homo sapiens) (UniProt Q6DT37); conditions: Compound concentration 1000.0 nM
[35] = target: Phosphatidylinositol 4,5-bisphosphate 3-kinase catalytic subunit alpha isoform (Homo sapiens) (UniProt P42336); conditions: Compound concentration 1000.0 nM
[36] = target: Activated CDC42 kinase 1 (Homo sapiens) (UniProt Q07912); conditions: Compound concentration 1000.0 nM
[37] = target: Bone morphogenetic protein receptor type-1A (Homo sapiens) (UniProt P36894); conditions: Compound concentration 1000.0 nM
[38] = target: Mitogen-activated protein kinase kinase kinase 9 (Homo sapiens) (UniProt P80192); conditions: Compound concentration 1000.0 nM
[39] = target: Mitogen-activated protein kinase 15 (Homo sapiens) (UniProt Q8TD08); conditions: Compound concentration 1000.0 nM
[40] = target: Epidermal growth factor receptor (Homo sapiens) (UniProt P00533); conditions: Compound concentration 1000.0 nM
[41] = target: Muscle, skeletal receptor tyrosine-protein kinase (Homo sapiens) (UniProt O15146); conditions: Compound concentration 1000.0 nM
[42] = target: Serine/threonine-protein kinase Nek7 (Homo sapiens) (UniProt Q8TDX7); conditions: Compound concentration 1000.0 nM
[43] = target: Death-associated protein kinase 3 (Homo sapiens) (UniProt O43293); conditions: Compound concentration 1000.0 nM
[44] = target: Glycogen synthase kinase-3 alpha (Homo sapiens) (UniProt P49840); conditions: Compound concentration 1000.0 nM
[45] = target: Cyclin-dependent kinase 2 (Homo sapiens) (UniProt P24941); conditions: Compound concentration 1000.0 nM

Mitogen-activated protein kinase kinase kinase 9 (Homo sapiens), sequence (P80192 whole entry, looked up): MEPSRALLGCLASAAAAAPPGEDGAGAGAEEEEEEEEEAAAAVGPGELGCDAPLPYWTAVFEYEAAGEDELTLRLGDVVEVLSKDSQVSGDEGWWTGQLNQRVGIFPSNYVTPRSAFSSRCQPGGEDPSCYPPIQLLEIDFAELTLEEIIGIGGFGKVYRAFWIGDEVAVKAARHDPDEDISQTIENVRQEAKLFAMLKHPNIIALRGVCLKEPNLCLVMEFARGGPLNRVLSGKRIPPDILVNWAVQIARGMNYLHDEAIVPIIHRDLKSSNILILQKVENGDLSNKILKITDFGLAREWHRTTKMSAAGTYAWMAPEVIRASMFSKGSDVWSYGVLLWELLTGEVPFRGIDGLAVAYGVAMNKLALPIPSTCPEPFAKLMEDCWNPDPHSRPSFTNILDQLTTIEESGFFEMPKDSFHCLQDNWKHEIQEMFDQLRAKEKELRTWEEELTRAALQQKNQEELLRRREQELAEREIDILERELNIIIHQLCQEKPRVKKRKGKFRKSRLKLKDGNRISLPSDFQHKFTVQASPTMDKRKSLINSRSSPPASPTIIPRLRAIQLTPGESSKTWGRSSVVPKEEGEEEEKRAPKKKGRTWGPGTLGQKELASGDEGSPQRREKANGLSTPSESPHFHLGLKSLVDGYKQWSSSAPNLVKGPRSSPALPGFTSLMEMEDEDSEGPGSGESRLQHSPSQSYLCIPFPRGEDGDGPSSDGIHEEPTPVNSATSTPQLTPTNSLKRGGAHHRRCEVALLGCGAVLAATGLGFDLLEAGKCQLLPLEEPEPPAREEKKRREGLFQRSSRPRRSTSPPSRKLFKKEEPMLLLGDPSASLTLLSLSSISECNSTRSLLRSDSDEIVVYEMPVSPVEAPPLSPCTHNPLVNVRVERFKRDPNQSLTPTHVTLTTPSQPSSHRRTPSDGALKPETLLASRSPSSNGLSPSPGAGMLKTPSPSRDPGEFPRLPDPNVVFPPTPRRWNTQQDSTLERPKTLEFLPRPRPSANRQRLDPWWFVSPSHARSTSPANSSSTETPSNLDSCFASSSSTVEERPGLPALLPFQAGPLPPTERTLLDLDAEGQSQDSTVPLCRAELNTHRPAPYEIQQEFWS
Tyrosine-protein kinase Mer (Homo sapiens), sequence (Q12866 whole entry): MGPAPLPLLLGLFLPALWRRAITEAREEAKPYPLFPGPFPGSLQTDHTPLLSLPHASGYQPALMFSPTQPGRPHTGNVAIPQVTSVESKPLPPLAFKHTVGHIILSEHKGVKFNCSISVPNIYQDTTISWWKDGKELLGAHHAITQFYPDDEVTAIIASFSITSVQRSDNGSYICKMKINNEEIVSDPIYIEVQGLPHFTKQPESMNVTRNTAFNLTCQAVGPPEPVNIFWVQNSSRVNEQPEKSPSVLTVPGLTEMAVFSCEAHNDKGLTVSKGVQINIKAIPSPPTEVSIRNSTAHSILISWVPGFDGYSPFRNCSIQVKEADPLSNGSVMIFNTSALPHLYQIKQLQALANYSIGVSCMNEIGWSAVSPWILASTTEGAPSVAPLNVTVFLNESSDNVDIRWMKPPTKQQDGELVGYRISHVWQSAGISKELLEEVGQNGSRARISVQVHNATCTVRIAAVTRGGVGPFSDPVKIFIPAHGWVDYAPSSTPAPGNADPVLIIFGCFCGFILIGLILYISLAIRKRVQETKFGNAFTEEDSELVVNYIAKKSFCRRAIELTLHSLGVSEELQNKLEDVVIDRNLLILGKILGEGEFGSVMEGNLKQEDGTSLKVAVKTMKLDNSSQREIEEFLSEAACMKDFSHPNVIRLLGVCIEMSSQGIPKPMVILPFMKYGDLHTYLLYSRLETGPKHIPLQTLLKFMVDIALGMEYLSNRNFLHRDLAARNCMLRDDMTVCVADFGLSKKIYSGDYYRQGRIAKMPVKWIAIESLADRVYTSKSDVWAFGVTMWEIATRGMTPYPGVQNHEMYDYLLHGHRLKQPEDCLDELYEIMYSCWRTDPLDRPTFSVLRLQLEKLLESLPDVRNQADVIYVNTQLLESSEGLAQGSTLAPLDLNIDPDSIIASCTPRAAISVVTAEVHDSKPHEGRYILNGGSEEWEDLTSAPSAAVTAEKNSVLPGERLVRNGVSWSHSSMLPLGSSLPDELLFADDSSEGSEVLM
Ephrin type-A receptor 7 (Homo sapiens), sequence (Q15375 28-998 limits assumed): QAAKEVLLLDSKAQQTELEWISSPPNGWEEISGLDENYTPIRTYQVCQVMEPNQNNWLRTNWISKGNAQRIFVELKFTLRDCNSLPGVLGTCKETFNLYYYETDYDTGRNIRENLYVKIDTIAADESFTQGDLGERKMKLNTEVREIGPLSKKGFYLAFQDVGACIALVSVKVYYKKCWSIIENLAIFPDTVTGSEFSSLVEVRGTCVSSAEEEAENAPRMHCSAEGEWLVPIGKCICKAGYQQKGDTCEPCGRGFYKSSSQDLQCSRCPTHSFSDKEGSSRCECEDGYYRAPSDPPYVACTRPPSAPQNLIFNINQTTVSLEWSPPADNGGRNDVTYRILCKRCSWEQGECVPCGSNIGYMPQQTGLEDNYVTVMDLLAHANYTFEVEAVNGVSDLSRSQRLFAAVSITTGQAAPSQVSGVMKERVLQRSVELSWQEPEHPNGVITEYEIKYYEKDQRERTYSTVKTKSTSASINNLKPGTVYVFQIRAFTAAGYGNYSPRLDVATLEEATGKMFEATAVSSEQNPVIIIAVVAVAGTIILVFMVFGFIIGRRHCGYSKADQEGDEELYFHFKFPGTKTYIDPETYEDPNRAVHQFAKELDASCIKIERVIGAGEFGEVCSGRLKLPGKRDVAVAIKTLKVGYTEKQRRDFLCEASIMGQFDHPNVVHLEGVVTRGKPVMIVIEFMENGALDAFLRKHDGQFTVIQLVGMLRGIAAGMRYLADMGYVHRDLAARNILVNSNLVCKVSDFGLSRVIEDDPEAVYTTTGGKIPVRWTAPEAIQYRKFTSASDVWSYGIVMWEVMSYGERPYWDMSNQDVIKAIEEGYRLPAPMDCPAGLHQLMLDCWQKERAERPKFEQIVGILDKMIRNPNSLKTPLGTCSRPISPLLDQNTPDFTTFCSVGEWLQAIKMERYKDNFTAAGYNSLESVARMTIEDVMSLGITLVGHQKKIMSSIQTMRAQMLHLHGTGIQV
Mitogen-activated protein kinase kinase kinase 12 (Homo sapiens), sequence (Q12852 whole entry): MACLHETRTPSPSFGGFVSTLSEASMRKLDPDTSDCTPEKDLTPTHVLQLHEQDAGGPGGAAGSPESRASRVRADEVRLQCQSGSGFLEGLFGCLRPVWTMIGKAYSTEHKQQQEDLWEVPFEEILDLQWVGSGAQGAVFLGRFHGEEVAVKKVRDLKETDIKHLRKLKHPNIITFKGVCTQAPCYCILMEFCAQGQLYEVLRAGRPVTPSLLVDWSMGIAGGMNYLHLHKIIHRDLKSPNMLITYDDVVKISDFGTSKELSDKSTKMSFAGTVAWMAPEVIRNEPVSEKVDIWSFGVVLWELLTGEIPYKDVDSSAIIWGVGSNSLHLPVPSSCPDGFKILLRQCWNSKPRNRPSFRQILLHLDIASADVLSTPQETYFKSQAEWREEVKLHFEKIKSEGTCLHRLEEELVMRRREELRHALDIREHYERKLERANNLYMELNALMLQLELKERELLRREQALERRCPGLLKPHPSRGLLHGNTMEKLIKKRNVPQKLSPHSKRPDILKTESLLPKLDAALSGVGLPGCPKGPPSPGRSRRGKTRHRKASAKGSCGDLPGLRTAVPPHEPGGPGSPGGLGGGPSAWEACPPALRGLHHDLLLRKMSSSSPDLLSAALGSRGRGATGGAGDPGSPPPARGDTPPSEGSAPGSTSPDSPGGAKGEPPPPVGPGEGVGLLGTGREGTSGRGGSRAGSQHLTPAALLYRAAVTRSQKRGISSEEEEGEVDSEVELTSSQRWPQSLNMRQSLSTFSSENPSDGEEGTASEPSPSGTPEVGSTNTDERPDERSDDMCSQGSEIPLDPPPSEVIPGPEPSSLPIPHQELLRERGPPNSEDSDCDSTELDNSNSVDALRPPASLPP
Serine/threonine-protein kinase ULK2 (Homo sapiens), sequence (Q8IYT8 whole entry): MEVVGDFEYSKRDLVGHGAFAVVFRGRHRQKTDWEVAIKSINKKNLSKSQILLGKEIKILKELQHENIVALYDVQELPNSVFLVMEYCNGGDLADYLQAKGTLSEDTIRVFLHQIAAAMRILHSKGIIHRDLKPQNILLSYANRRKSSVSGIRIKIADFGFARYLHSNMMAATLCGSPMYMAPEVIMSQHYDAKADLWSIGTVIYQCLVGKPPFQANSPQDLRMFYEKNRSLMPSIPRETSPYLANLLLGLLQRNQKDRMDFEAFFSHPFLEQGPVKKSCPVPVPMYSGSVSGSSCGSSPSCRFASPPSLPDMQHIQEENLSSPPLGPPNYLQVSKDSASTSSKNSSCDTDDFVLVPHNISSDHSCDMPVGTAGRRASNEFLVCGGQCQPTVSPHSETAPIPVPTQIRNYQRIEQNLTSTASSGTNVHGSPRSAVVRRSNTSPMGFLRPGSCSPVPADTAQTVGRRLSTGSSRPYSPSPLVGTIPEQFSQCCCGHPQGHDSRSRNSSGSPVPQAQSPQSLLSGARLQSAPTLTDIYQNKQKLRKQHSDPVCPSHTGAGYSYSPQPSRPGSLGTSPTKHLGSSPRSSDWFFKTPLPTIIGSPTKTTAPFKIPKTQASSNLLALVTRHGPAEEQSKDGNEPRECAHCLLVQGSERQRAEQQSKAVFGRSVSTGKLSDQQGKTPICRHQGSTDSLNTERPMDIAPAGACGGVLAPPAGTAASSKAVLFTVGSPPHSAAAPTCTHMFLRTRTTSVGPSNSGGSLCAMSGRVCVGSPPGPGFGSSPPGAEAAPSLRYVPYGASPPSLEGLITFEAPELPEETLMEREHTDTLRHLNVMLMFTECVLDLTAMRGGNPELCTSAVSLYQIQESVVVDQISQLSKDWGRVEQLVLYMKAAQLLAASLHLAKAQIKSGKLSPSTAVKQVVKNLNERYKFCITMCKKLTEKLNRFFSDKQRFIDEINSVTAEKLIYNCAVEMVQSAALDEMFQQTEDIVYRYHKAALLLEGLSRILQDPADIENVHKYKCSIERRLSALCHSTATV

COc1cccc(CNC(=O)c2nc3scc(COCc4ccc(C(=O)O)cc4)c3c(=O)[nH]2)c1 [T-26c]
inactive: residual activity [1] 69.2% | residual activity [2] 92% | residual activity [3] 58.2% | residual activity [4] 100% | residual activity [5] 70.8% | residual activity [6] 100% | residual activity [7] 98.5% | residual activity [8] 100% | residual activity [9] 100% | residual activity [10] 88% | residual activity [11] 78.6% | residual activity [12] 91.3% | residual activity [13] 88.3% | residual activity [14] 100% | residual activity [15] 83.8% | residual activity [16] 100% | residual activity [17] 100% | residual activity [18] 86.5% | residual activity [19] 100% | residual activity [20] 100% | residual activity [21] 96.7% | inhibition [22] -9.07% | residual activity [23] 75% | residual activity [24] 72.5% | residual activity [25] 100% | residual activity [26] 68.6% | residual activity [27] 100% | residual activity [28] 100% | residual activity [29] 89.2% | residual activity [30] 87.2% | residual activity [31] 76.3% | residual activity [32] 96.8% | residual activity [33] 82.2% | residual activity [34] 99.4% | residual activity [35] 78.8% | residual activity [36] 89.6% | residual activity [37] 100% | residual activity [38] 100% | residual activity [39] 82.4% | residual activity [40] 69.3% | residual activity [41] 100% | residual activity [42] 100% | residual activity [43] 92.2% | residual activity [44] 100% | residual activity [45] 100%

Reference: ChEMBL document CHEMBL4507300 (2021)
